Article PMC13070491, “Single-nucleus transcriptomics, pharmacokinetics, and pharmacodynamics of CDK4/6 and mTOR inhibition in a Phase 0/1 trial of recurrent high-grade glioma” (Neuro-Oncology, 2025)
Values joined by “and” are separate entries in the source; they are usually repeats but may differ in a detail not shown here. Identical values can stand only once.

What was measured:
[1] = test system: Ki-67; test: IHC of tumor tissue, percentage of Ki-67 positive cells, archival vs Phase 0 surgical sample; assay type: in vivo, human
[2] = test system: malignant cells of recurrent IDH-wildtype glioblastoma; test: Single nucleus RNA sequencing of tumor samples, malignant cell state proportions vs standard-of-care cohorts; assay type: in vivo, human
Text: Count matrices were loaded into R using Seurat's (version 4.3.0) Read10X function. Cells were filtered based on the following quality control criteria: number of genes detected greater than 500 and fewer than 10 000; maximum percentage of mitochondrial genes of 5%. DoubletFinder was used to identify potential nuclei doublets, which were filtered out.[17] The expression data were processed by normalization, scaling, PCA based on genes differentially expressed across brain cell types, Harmony batch correction for sample preparation batch,[18] Uniform Manifold Approximation and Projection (UMAP), and clustering using the Louvain algorithm, and resolution set to 0.6. Cell type annotation was based on gene expression markers for each cluster and confirmed via mapping to a normal reference brain atlas (Azimuth). […] (https://github.com/broadinstitute/[…]) was used to confirm malignant status based on the presence of copy number alterations. […] HMM-predicted copy number alteration levels were extracted to define malignant and nonmalignant cells based on the following approach. […] Putative malignant cells not meeting this threshold were labelled as unresolved and excluded. Cells assigned to a nonmalignant gene expression cluster with 25% of chromosome 7 inferred gain and/or 25% of chromosome 10 inferred loss were labelled as unresolved and excluded. Samples with fewer than 25 malignant cells were excluded from malignant state analysis. […] Cell cycle status was assigned independent of […] cell state. Cells were classified as AC-like, etc., along with its cell cycle status-cycling or not.

[3] = CNS penetration: total and unbound drug concentrations in tumor regions, CSF and plasma (LC-MS/MS, equilibrium dialysis); details: for Ribociclib.CSF / Ribociclib.Non-enhancing.tumor / Ribociclib.Plasma.conc / Ribociclib.Unbound.CSF / Ribociclib.Unbound.enhancing: per patient; for Kp at 120 h / Kp uu at 120 h / concentration at 5 days: human;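 as to all read-outs here: drug levels in patient tumor tissue from contrast-enhancing and non-enhancing regions sampled under MRI-guided neuronavigation, with plasma and CSF drawn during surgical resection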
[4] = Level 0: Ribociclib 400mg QD + Everolimus 2.5mg QD, sampling 1-3 Hours
[5] = Level 0: Ribociclib 400mg QD + Everolimus 2.5mg QD, sampling 23-25 Hours
[6] = Level 1: Ribociclib 600mg QD + Everolimus 2.5mg QD, sampling 1-3 Hours
[7] = Level 1: Ribociclib 600mg QD + Everolimus 2.5mg QD, sampling 7-9 Hours
[8] = Level 2: Ribociclib 600mg QD + Everolimus 5mg QD, sampling 7-9 Hours
[9] = Level 3: Ribociclib 600mg QD + Everolimus 10mg QD, sampling 7-9 Hours
[10] = Level 4: Ribociclib 600mg QD + Everolimus 50mg once on Day 5, sampling 7-9 Hours
[11] = Level 5: Ribociclib 600mg QD + Everolimus 60mg once on Day 5, sampling 7-9 Hours
[12] = Level 6: Ribociclib 600mg QD + Everolimus 70mg once on Day 5, sampling 7-9 Hours
[13] = enhancing tumor / plasma, oral, 400 mg
[14] = enhancing tumor / plasma, oral, 600 mg
[15] = non-enhancing tumor / plasma, oral, 400 mg
[16] = non-enhancing tumor / plasma, oral, 600 mg

For `CN(C)C(=O)c1cc2cnc(Nc3ccc(N4CCNCC4)cn3)nc2n1C1CCCC1` [Ribociclib, ribociclib], the “change in proliferative Ki-67 marker, surgical samples vs matched archival tissue” value ([1]; IDH-wildtype patients n = 20, paired t-test P = .02, 5 days ribociclib + everolimus) was “significant decrease”, the “median decrease in Ki-67” value ([1]; ribociclib 400 mg) was 2.93% and the “median decrease in Ki-67” value ([1]; ribociclib 600 mg) was 8.94%. For the same compound, the “proportion of malignant cells actively cycling vs standard treatment cohorts (snRNAseq)” value ([2]; n = 17 ribociclib-exposed vs CARE n = 57 and Wang et al. n = 31, P = 3.2E-03 and P = 2.0E-04) was “lower proportion”, the “neural progenitor-like (NPC-like) state vs standard treatment cohorts (snRNAseq)” value ([2]; n = 17 ribociclib-exposed vs CARE n = 57 and Wang et al. n = 31, P = 5.8E-05, P = 1.8E-03) was “decrease” and the “fraction of NPC-like malignant cells, Phase 2 (104 days) vs Phase 0 (5-day) sample of one patient” value ([2]; ribociclib monotherapy, single case, snRNAseq) was “reduced fraction”. For the same compound, the “Total Ribociclib concentration, CSF, Minimum” value ([3]; 400 mg QD 5 days) was 36 nM, the “Total Ribociclib concentration, CSF, Maximum” value ([3]; 600 mg QD 5 days) was 714 nM and the “Total Ribociclib concentration, CSF, Median” value ([3]; 600 mg QD 5 days) was 276 nM. The “Total Ribociclib concentration, CSF, Minimum” value ([3]; 600 mg QD 5 days) was 54 nM, the Ribociclib.CSF [3, 4] was 0.0707 and the Ribociclib.Non-enhancing.tumor [3, 4] was 6.684. For the same compound, the Ribociclib.Plasma.conc [3, 4] was 2.09 and 0.31, the Ribociclib.Unbound.CSF [3, 4] was 0.2008 and 0.0206 and the Ribociclib.Unbound.enhancing [3, 4] was 1.4 and 0.419. For the same compound, the Ribociclib.CSF [3, 5] was 0.1931, the Ribociclib.Non-enhancing.tumor [3, 5] was 3.834 and the Ribociclib.Plasma.conc [3, 5] was 0.402 and 0.1417. For the same compound, the Ribociclib.Unbound.CSF [3, 5] was 0.0928, the Ribociclib.Unbound.enhancing [3, 5] was 0.92 and 0.1576 and the Ribociclib.CSF [3, 6] was 0.0543. The Ribociclib.Non-enhancing.tumor [3, 6] was 7.2608, the Ribociclib.Plasma.conc [3, 6] was 0.1944 and the Ribociclib.Unbound.CSF [3, 6] was 0.0207. For the same compound, the Ribociclib.Unbound.enhancing [3, 6] was 0.4205, the Ribociclib.CSF [3, 7] was 0.4701 and 0.7139 and the Ribociclib.Non-enhancing.tumor [3, 7] was 30.0728 and 22.3048. For the same compound, the Ribociclib.Plasma.conc [3, 7] was 3.4168 and 1.3485, the Ribociclib.Unbound.CSF [3, 7] was 0.2858 and 0.3152 and the Ribociclib.Unbound.enhancing [3, 7] was 4.5 and 3.49. For the same compound, the Ribociclib.CSF [3, 8] was 0.1529 and 0.1758, the Ribociclib.Non-enhancing.tumor [3, 8] was 8.1928 and 11.9076 and 16.496 and the Ribociclib.Plasma.conc [3, 8] was 1.151 and 0.8853 and 1.3745. The Ribociclib.Unbound.CSF [3, 8] was 0.1531 and 0.1613, the Ribociclib.Unbound.enhancing [3, 8] was 1.0167 and 1.1852 and 2.1093 and the Ribociclib.CSF [3, 9] was 0.2760 and 0.5558 and 0.3667. The Ribociclib.Non-enhancing.tumor [3, 9] was 19.9804 and 11.7316 and 41.6376, the Ribociclib.Plasma.conc [3, 9] was 1.0816 and 1.6009 and the Ribociclib.Unbound.CSF [3, 9] was 0.3027. For the same compound, the Ribociclib.Unbound.enhancing [3, 9] was 1.1229 and 3.39 and 0.0047, the Ribociclib.CSF [3, 10] was 0.1707 and 0.4561 and the Ribociclib.Non-enhancing.tumor [3, 10] was 4.2684 and 4.8112. The Ribociclib.Plasma.conc [3, 10] was 0.7506 and 1.3586 and 0.9058, the Ribociclib.Unbound.CSF [3, 10] was 0.1543 and 0.2120 and 0.3373 and the Ribociclib.Unbound.enhancing [3, 10] was 0.6494 and 0.9352 and 3.453. The Ribociclib.CSF [3, 11] was 0.0807 and 0.3122 and 0.4398, the Ribociclib.Non-enhancing.tumor [3, 11] was 12.238 and 4.126 and the Ribociclib.Plasma.conc [3, 11] was 1.163 and 1.8703 and 1.3349. For the same compound, the Ribociclib.Unbound.CSF [3, 11] was 0.0799 and 0.2965, the Ribociclib.Unbound.enhancing [3, 11] was 1.348 and 0.6511 and 0.2648 and the Ribociclib.CSF [3, 12] was 0.5436 and 0.0672 and 0.1419. For the same compound, the Ribociclib.Non-enhancing.tumor [3, 12] was 17.8508 and 1.3144 and 1.5982, the Ribociclib.Plasma.conc [3, 12] was 1.4899 and 0.302 and 1.3235 and the Ribociclib.Unbound.CSF [3, 12] was 0.1898 and 0.0709 and 0.0882. For the same compound, the Ribociclib.Unbound.enhancing [3, 12] was 1.0559 and 0.5673 and 0.5436, the Kp at 120 h ([3]; CSF / plasma, oral, 400 mg) was 0.25 and the Kp uu at 120 h ([3]; CSF / plasma, oral, 400 mg) was 1.15. The Kp at 120 h ([3]; CSF / plasma, oral, 600 mg) was 0.22, the Kp uu at 120 h ([3]; CSF / plasma, oral, 600 mg) was 0.84 and the concentration at 5 days ([3]; CSF, oral, Total Ribociclib concentration, Maximum, 400 mg QD 5 days) was 216 nM. It also gave a concentration at 5 days ([3]; CSF, oral, Total Ribociclib concentration, Median, 400 mg QD 5 days) of 137 nM, a concentration at 5 days ([3]; CSF, oral, Unbound Ribociclib concentration, Maximum, 400 mg QD 5 days) of 201 nM and a concentration at 5 days ([3]; CSF, oral, Unbound Ribociclib concentration, Maximum, 600 mg QD 5 days) of 337 nM. It also gave a concentration at 5 days ([3]; CSF, oral, Unbound Ribociclib concentration, Median, 400 mg QD 5 days) of 82 nM, a concentration at 5 days ([3]; CSF, oral, Unbound Ribociclib concentration, Median, 600 mg QD 5 days) of 212 nM and a concentration at 5 days ([3]; CSF, oral, Unbound Ribociclib concentration, Minimum, 400 mg QD 5 days) of 21 nM. For the same compound, the concentration at 5 days ([3]; CSF, oral, Unbound Ribociclib concentration, Minimum, 600 mg QD 5 days) was 21 nM, the Kp at 120 h [3, 13] was 12.9 and the Kp uu at 120 h [3, 13] was 5.1. For the same compound, the Kp at 120 h [3, 14] was 14.1, the Kp uu at 120 h [3, 14] was 5.67 and the concentration at 5 days ([3]; enhancing tumor, oral, Total Ribociclib concentration, Maximum, 400 mg QD 5 days) was 9900 nM. It also gave a concentration at 5 days ([3]; enhancing tumor, oral, Total Ribociclib concentration, Maximum, 600 mg QD 5 days) of 49400 nM, a concentration at 5 days ([3]; enhancing tumor, oral, Total Ribociclib concentration, Median, 400 mg QD 5 days) of 4060 nM and a concentration at 5 days ([3]; enhancing tumor, oral, Total Ribociclib concentration, Median, 600 mg QD 5 days) of 14800 nM. It also gave a concentration at 5 days ([3]; enhancing tumor, oral, Total Ribociclib concentration, Minimum, 400 mg QD 5 days) of 2330 nM, a concentration at 5 days ([3]; enhancing tumor, oral, Total Ribociclib concentration, Minimum, 600 mg QD 5 days) of 753 nM and a concentration at 5 days ([3]; enhancing tumor, oral, Unbound Ribociclib concentration, Maximum, 400 mg QD 5 days) of 1400 nM. It also gave a concentration at 5 days ([3]; enhancing tumor, oral, Unbound Ribociclib concentration, Maximum, 600 mg QD 5 days) of 4500 nM, a concentration at 5 days ([3]; enhancing tumor, oral, Unbound Ribociclib concentration, Median, 400 mg QD 5 days) of 375 nM and a concentration at 5 days ([3]; enhancing tumor, oral, Unbound Ribociclib concentration, Median, 600 mg QD 5 days) of 1040 nM. It also gave a concentration at 5 days ([3]; enhancing tumor, oral, Unbound Ribociclib concentration, Minimum, 400 mg QD 5 days) of 158 nM, a concentration at 5 days ([3]; enhancing tumor, oral, Unbound Ribociclib concentration, Minimum, 600 mg QD 5 days) of 4.7 nM and a Kp at 120 h [3, 15] of 8.35. The Kp uu at 120 h [3, 15] was 3.19, the Kp at 120 h [3, 16] was 8.8 and the Kp uu at 120 h [3, 16] was 3.78. The concentration at 5 days ([3]; non-enhancing tumor, oral, Total Ribociclib concentration, Maximum, 400 mg QD 5 days) was 15000 nM, the concentration at 5 days ([3]; non-enhancing tumor, oral, Total Ribociclib concentration, Maximum, 600 mg QD 5 days) was 41600 nM and the concentration at 5 days ([3]; non-enhancing tumor, oral, Total Ribociclib concentration, Median, 400 mg QD 5 days) was 3130 nM. It also gave a concentration at 5 days ([3]; non-enhancing tumor, oral, Total Ribociclib concentration, Median, 600 mg QD 5 days) of 11700 nM, a concentration at 5 days ([3]; non-enhancing tumor, oral, Total Ribociclib concentration, Minimum, 400 mg QD 5 days) of 1370 nM and a concentration at 5 days ([3]; non-enhancing tumor, oral, Total Ribociclib concentration, Minimum, 600 mg QD 5 days) of 1310 nM. It also gave a concentration at 5 days ([3]; non-enhancing tumor, oral, Unbound Ribociclib concentration, Maximum, 400 mg QD 5 days) of 1770 nM, a concentration at 5 days ([3]; non-enhancing tumor, oral, Unbound Ribociclib concentration, Maximum, 600 mg QD 5 days) of 2340 nM and a concentration at 5 days ([3]; non-enhancing tumor, oral, Unbound Ribociclib concentration, Median, 400 mg QD 5 days) of 170 nM. The concentration at 5 days ([3]; non-enhancing tumor, oral, Unbound Ribociclib concentration, Median, 600 mg QD 5 days) was 693 nM, the concentration at 5 days ([3]; non-enhancing tumor, oral, Unbound Ribociclib concentration, Minimum, 400 mg QD 5 days) was 65 nM and the concentration at 5 days ([3]; non-enhancing tumor, oral, Unbound Ribociclib concentration, Minimum, 600 mg QD 5 days) was 68 nM. It also gave a concentration at 5 days ([3]; non-enhancing tumor, po, unbound drug concentration in the non-enhancing tumor regions, range, ribociclib 400 mg daily oral, 5 days) of 65 to 1770 nM and a concentration at 5 days ([3]; non-enhancing tumor, po, unbound drug concentration in the non-enhancing tumor regions, range, ribociclib 600 mg daily oral, 5 days) of 68 to 2340 nM.
